Assay results taken from the kinase profiling compilation of Christmann-Franck et al. (2016).

Experiments:
Test in all cases: radiometric filter-binding kinase assay
PRKCZ (human) = PRKCZ (human) (UniProt Q05513)
MAPKAPK5 (human) = MAPKAPK5 (human) (UniProt Q8IW41)
MAP2K2 (human) = MAP2K2 (human) (UniProt P36507)
ERBB4 (human) = ERBB4 (human) (UniProt Q15303)
MAPK3 (human) = MAPK3 (human) (UniProt P27361)
STK3 (human) = STK3 (human) (UniProt Q13188)
PIM3 (human) = PIM3 (human) (UniProt Q86V86)
DYRK1A (human) = DYRK1A (human) (UniProt Q13627)
MARK1 (human) = MARK1 (human) (UniProt Q9P0L2)
BRSK2 (human) = BRSK2 (human) (UniProt Q8IWQ3)
FGFR1 (human) = FGFR1 (human) (UniProt P11362)
HIPK3 (human) = HIPK3 (human) (UniProt Q9H422)
MAPK13 (human) = MAPK13 (human) (UniProt O15264)
BRSK1 (human) = BRSK1 (human) (UniProt Q8TDC3)
MAP3K5 (human) = MAP3K5 (human) (UniProt Q99683)
SYK (human) = SYK (human) (UniProt P43405)
MKNK1 (human) = MKNK1 (human) (UniProt Q9BUB5)
GSK3B (human) = GSK3B (human) (UniProt P49841); conditions: compound 1.0 µM
EPHB4 (human) = EPHB4 (human) (UniProt P54760)
IKBKE (human) = IKBKE (human) (UniProt Q14164)
CAMKK2 (human) = CAMKK2 (human) (UniProt Q96RR4)
MAPK12 (human) = MAPK12 (human) (UniProt P53778)
PRKACA (human) = PRKACA (human) (UniProt P17612)
EEF2K (human) = EEF2K (human) (UniProt O00418)
PIM2 (human) = PIM2 (human) (UniProt Q9P1W9); conditions: compound 1.0 µM
PIM1 (human) = PIM1 (human) (UniProt P11309)
[1] = system: SGK1 (human), O00141 [S422D]
PHKG1 (human) = PHKG1 (human) (UniProt Q16816)
MAPK9 (human) = MAPK9 (human) (UniProt P45984)
PAK7 (human) = PAK7 (human) (UniProt Q9P286)
DAPK1 (human) = DAPK1 (human) (UniProt P53355)
MELK (human) = MELK (human) (UniProt Q14680)
MAP2K6 (human) = MAP2K6 (human) (UniProt P52564)
MAPKAPK2 (human) = MAPKAPK2 (human) (UniProt P49137)

MKNK1 (human), sequence (Q9BUB5 whole entry, looked up): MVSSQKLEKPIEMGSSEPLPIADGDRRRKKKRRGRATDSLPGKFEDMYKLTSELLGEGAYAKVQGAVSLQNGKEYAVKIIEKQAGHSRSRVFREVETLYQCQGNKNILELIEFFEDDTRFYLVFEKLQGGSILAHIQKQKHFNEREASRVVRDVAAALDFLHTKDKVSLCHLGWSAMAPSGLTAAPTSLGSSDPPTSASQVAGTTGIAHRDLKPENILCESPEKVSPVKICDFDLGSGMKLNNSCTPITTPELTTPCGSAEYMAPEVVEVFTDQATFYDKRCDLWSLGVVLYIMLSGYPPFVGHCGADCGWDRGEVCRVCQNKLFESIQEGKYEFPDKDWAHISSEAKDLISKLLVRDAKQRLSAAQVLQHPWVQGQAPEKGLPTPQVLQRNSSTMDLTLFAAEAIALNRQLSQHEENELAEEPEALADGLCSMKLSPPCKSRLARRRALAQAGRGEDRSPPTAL
HIPK3 (human), sequence (Q9H422 whole entry, looked up): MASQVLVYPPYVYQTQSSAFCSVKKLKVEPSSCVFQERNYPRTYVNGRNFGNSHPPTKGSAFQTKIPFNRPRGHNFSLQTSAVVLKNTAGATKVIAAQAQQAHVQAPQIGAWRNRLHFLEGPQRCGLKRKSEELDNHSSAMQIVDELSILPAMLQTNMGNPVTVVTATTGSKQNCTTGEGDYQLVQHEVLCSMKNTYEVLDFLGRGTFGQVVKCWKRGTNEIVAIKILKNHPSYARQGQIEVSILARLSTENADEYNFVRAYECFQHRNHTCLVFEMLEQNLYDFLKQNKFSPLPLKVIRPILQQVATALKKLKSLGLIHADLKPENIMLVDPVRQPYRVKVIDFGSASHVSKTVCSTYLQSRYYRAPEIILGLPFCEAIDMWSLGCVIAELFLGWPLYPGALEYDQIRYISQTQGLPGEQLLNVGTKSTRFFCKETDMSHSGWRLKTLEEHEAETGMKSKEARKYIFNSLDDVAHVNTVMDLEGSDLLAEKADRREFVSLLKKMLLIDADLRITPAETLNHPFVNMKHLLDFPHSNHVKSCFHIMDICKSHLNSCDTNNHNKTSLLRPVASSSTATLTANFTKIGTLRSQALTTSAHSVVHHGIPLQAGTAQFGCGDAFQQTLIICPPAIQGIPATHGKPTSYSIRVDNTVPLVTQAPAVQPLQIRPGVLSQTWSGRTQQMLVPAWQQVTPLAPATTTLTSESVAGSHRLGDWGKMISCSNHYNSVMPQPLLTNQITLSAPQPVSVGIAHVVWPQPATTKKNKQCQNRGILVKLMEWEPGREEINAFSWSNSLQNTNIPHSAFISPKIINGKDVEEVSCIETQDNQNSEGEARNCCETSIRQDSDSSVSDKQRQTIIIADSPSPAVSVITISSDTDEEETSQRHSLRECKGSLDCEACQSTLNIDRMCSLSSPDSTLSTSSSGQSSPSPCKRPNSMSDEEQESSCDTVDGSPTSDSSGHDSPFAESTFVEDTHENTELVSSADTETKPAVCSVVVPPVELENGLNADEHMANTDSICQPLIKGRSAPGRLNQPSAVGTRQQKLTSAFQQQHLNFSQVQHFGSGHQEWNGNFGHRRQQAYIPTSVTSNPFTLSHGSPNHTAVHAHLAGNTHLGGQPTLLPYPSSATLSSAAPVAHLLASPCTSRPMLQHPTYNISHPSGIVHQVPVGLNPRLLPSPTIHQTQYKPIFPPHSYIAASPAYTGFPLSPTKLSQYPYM
MAPK12 (human), sequence (P53778 whole entry, looked up): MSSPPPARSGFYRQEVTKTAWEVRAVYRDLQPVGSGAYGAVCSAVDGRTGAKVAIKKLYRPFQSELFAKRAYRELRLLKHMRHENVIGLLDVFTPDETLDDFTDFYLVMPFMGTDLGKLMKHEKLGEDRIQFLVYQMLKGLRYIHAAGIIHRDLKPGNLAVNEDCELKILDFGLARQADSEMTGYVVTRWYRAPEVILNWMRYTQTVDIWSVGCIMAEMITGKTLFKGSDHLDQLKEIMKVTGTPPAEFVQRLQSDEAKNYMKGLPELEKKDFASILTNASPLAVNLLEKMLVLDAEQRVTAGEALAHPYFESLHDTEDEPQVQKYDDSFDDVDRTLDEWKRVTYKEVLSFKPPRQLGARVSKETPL
MAPK3 (human), sequence (P27361 whole entry, looked up): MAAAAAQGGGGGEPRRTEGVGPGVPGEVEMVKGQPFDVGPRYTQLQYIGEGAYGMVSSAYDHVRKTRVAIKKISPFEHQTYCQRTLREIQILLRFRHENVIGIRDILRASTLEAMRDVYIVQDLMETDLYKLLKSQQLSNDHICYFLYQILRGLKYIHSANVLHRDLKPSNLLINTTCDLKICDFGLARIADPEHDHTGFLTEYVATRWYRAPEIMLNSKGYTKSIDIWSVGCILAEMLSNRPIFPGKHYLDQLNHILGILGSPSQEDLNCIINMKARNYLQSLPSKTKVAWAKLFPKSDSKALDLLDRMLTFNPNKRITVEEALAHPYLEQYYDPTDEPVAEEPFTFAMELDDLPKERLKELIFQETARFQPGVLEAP
MAPKAPK5 (human), sequence (Q8IW41 whole entry, looked up): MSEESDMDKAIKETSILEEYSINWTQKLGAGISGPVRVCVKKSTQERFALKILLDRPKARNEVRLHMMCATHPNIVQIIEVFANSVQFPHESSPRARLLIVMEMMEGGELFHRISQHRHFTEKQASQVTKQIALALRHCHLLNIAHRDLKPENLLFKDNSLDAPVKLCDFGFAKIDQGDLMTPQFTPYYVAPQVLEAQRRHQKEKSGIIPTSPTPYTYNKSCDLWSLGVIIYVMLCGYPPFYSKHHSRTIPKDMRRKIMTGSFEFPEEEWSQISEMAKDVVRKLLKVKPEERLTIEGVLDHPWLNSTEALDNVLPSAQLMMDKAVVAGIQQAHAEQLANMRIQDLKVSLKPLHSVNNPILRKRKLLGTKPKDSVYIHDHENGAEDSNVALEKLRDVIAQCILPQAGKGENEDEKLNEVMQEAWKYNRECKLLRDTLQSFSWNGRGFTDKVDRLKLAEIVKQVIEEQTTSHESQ
CAMKK2 (human), sequence (Q96RR4 whole entry, looked up): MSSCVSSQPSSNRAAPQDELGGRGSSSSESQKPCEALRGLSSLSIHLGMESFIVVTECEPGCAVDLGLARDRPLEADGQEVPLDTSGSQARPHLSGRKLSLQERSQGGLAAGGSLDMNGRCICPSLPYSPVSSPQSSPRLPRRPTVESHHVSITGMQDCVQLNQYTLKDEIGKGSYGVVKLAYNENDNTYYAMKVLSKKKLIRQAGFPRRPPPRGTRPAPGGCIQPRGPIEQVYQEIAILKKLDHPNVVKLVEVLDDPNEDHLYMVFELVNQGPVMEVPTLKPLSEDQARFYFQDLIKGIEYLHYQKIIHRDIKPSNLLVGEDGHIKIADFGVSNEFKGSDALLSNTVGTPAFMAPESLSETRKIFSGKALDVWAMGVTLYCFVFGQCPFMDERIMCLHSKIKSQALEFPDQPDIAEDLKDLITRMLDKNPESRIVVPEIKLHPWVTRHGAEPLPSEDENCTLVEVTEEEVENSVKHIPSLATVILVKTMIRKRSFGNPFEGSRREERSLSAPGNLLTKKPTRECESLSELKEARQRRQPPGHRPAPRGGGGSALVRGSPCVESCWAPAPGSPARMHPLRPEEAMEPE
PAK7 (human), sequence (Q9P286 whole entry, looked up): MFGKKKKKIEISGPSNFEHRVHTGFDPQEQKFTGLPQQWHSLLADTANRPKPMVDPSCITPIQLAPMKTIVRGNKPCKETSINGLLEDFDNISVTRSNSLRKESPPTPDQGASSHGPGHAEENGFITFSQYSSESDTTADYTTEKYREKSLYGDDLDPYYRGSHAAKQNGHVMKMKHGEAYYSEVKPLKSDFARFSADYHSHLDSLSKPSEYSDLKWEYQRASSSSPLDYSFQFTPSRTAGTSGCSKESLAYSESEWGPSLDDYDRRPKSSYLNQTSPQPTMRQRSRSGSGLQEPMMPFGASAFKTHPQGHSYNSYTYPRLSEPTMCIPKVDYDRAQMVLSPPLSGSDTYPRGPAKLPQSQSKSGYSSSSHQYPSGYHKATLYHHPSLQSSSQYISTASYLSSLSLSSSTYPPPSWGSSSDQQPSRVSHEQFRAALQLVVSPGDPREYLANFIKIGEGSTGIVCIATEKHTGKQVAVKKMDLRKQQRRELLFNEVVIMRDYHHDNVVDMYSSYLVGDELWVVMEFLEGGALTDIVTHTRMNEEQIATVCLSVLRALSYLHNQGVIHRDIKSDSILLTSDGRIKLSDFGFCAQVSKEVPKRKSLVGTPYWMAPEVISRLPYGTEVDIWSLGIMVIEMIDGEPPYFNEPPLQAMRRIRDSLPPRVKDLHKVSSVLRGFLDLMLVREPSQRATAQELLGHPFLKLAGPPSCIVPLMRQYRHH
MARK1 (human), sequence (Q9P0L2 whole entry, looked up): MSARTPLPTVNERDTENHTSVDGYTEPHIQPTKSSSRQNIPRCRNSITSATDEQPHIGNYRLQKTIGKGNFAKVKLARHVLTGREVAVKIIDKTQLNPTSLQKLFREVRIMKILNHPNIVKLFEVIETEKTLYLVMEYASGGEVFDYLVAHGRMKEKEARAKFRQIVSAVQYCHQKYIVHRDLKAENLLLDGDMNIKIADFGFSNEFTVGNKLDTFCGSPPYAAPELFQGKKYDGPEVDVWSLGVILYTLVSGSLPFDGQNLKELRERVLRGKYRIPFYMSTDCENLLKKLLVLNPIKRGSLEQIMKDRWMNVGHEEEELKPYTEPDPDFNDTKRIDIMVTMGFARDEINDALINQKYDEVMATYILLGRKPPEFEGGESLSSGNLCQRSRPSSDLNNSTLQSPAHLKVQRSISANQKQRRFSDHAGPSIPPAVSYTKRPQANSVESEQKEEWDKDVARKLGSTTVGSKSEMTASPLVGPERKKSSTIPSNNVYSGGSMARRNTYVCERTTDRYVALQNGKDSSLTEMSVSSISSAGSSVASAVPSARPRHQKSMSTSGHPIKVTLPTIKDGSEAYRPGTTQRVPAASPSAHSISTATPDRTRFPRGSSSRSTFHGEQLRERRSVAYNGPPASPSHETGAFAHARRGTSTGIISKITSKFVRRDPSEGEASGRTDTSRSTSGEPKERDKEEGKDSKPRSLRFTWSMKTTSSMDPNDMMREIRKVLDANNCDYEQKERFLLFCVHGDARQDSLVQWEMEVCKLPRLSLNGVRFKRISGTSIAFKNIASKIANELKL

residual activity (PRKCZ (human); compound 0.01 µM): 97% | residual activity (PRKCZ (human); compound 0.1 µM): 104% | residual activity (PRKCZ (human); compound 1.0 µM): 102% | residual activity (MAPKAPK5 (human); compound 0.01 µM): 119% | residual activity (MAPKAPK5 (human); compound 0.1 µM): 115% | residual activity (MAPKAPK5 (human); compound 1.0 µM): 125% | residual activity (MAP2K2 (human); compound 0.01 µM): 101% | residual activity (MAP2K2 (human); compound 0.1 µM): 96% | residual activity (MAP2K2 (human); compound 1.0 µM): 85% | residual activity (ERBB4 (human); compound 0.01 µM): 90% | residual activity (ERBB4 (human); compound 1.0 µM): 18% | residual activity (MAPK3 (human); compound 0.01 µM): 104% | residual activity (MAPK3 (human); compound 0.1 µM): 101% | residual activity (MAPK3 (human); compound 1.0 µM): 95% | residual activity (STK3 (human); compound 0.01 µM): 112% | residual activity (STK3 (human); compound 0.1 µM): 109% | residual activity (STK3 (human); compound 1.0 µM): 118% | residual activity (PIM3 (human); compound 0.01 µM): 103% | residual activity (PIM3 (human); compound 0.1 µM): 110% | residual activity (PIM3 (human); compound 1.0 µM): 103% | residual activity (DYRK1A (human); compound 0.01 µM): 100% | residual activity (DYRK1A (human); compound 0.1 µM): 95% | residual activity (DYRK1A (human); compound 1.0 µM): 93% | residual activity (MARK1 (human); compound 0.01 µM): 88% | residual activity (MARK1 (human); compound 0.1 µM): 87% | residual activity (MARK1 (human); compound 1.0 µM): 53% | residual activity (BRSK2 (human); compound 0.1 µM): 97% | residual activity (BRSK2 (human); compound 1.0 µM): 88% | residual activity (FGFR1 (human); compound 0.01 µM): 102% | residual activity (FGFR1 (human); compound 0.1 µM): 34% | residual activity (FGFR1 (human); compound 1.0 µM): 2% | residual activity (HIPK3 (human); compound 0.01 µM): 80% | residual activity (HIPK3 (human); compound 0.1 µM): 86% | residual activity (HIPK3 (human); compound 1.0 µM): 74% | residual activity (MAPK13 (human); compound 0.01 µM): 102% | residual activity (MAPK13 (human); compound 0.1 µM): 97% | residual activity (MAPK13 (human); compound 1.0 µM): 98% | residual activity (BRSK1 (human); compound 0.01 µM): 103% | residual activity (BRSK1 (human); compound 0.1 µM): 99% | residual activity (BRSK1 (human); compound 1.0 µM): 86% | residual activity (MAP3K5 (human); compound 0.01 µM): 110% | residual activity (MAP3K5 (human); compound 0.1 µM): 119% | residual activity (SYK (human); compound 0.01 µM): 112% | residual activity (SYK (human); compound 0.1 µM): 104% | residual activity (SYK (human); compound 1.0 µM): 100% | residual activity (MKNK1 (human); compound 0.01 µM): 109% | residual activity (MKNK1 (human); compound 0.1 µM): 116% | residual activity (MKNK1 (human); compound 1.0 µM): 112% | residual activity (GSK3B (human)): 88% | residual activity (EPHB4 (human); compound 0.01 µM): 110% | residual activity (EPHB4 (human); compound 0.1 µM): 80% | residual activity (EPHB4 (human); compound 1.0 µM): 5% | residual activity (IKBKE (human); compound 0.1 µM): 94% | residual activity (IKBKE (human); compound 1.0 µM): 102% | residual activity (CAMKK2 (human); compound 0.01 µM): 105% | residual activity (CAMKK2 (human); compound 0.1 µM): 102% | residual activity (CAMKK2 (human); compound 1.0 µM): 89% | residual activity (MAPK12 (human); compound 0.01 µM): 110% | residual activity (MAPK12 (human); compound 0.1 µM): 112% | residual activity (MAPK12 (human); compound 1.0 µM): 105% | residual activity (PRKACA (human); compound 0.01 µM): 91% | residual activity (PRKACA (human); compound 0.1 µM): 96% | residual activity (PRKACA (human); compound 1.0 µM): 79% | residual activity (EEF2K (human); compound 0.1 µM): 108% | residual activity (EEF2K (human); compound 1.0 µM): 89% | residual activity (PIM2 (human)): 117% | residual activity (PIM1 (human); compound 0.01 µM): 107% | residual activity (PIM1 (human); compound 0.1 µM): 113% | residual activity (PIM1 (human); compound 1.0 µM): 111% | residual activity ([1]; compound 0.01 µM): 94% | residual activity ([1]; compound 1.0 µM): 93% | residual activity (PHKG1 (human); compound 0.01 µM): 125% | residual activity (PHKG1 (human); compound 0.1 µM): 104% | residual activity (PHKG1 (human); compound 1.0 µM): 107% | residual activity (MAPK9 (human); compound 0.01 µM): 103% | residual activity (MAPK9 (human); compound 0.1 µM): 90% | residual activity (MAPK9 (human); compound 1.0 µM): 21% | residual activity (PAK7 (human); compound 0.01 µM): 95% | residual activity (PAK7 (human); compound 0.1 µM): 91% | residual activity (PAK7 (human); compound 1.0 µM): 72% | residual activity (DAPK1 (human); compound 0.1 µM): 88% | residual activity (DAPK1 (human); compound 1.0 µM): 96% | residual activity (MELK (human); compound 0.01 µM): 105% | residual activity (MELK (human); compound 0.1 µM): 93% | residual activity (MELK (human); compound 1.0 µM): 71% | residual activity (MAP2K6 (human); compound 0.1 µM): 101% | residual activity (MAP2K6 (human); compound 1.0 µM): 92% | residual activity (MAPKAPK2 (human); compound 0.01 µM): 101% | residual activity (MAPKAPK2 (human); compound 0.1 µM): 100% | residual activity (MAPKAPK2 (human); compound 1.0 µM): 97%
SMILES: COc1ccc(N(C(=O)Nc2c(C)cccc2C)c2cc(Nc3ccc(N4CCN(C)CC4)cc3)ncn2)c(OC)c1
